One block for each compound: values may come before it.
What was measured:
[1] = tested on: thermal stable β-glucosidase; assay: Glucosidase assay: light output of furimazine mono- or bis-glucoside pro-substrate with Nanoluc, with and without β-glucosidase; assay type: biochemical; conditions: for Background RLU: without β-glucosidase, Nanoluc; for Signal to Background: β-glucosidase vs no β-glucosidase
Procedure: To the solution of 50 μl of furimazine mono- or bis-glucoside compound (100 μM) in NanoGlo buffer and 50 μl of NanoGlo buffer containing 1 ng/mL Nanoluc was added 11 μl of thermal stable β-glucosidase (Sigma) in PBS with final concentration of 1 Unit/ml/μM, and the light output was measured over time. The background of pro-substrate was measured under same condition without β-glucosidase.
(§1) The synthesized coelenterazine analogues (compounds of formula (I)) were evaluated for their background and signal/background ratio.

[2] = tested on: alkaline phosphatase; assay: Alkaline phosphatase assay: light output of furimazine mono- or bis-phosphate pro-substrate with Nanoluc, with and without alkaline phosphatase; assay type: biochemical; conditions: for Signal to Background: alkaline phosphatase vs none; for Background RLU: without alkaline phosphatase, Nanoluc
Procedure: Alkaline phosphatase assays. To the solution of 50 μl furimazine mono- or bis-phosphate compound (50 μM) and 50 μL of NanoGlo buffer containing 1 ng/mL Nanoluc was added, then alkaline phosphatase (Sigma) in PBS with final concentration at 1 Unit/ml/μM was added, and the light output was measured over time. The background of pro-substrate was measured under same condition without adding alkaline phasphotase.
as §1

[3] = target: T1, Cathepsin C (Bos taurus, UniProt Q3ZCJ8); assay: Cathepsin C assay: light output of furimazine mono- or bis-Gly-Phe pro-substrate with Nanoluc, with and without Cathepsin C; assay type: biochemical, bovine; conditions: for Signal to Background: Cathepsin C vs none; for Background RLU: without Cathepsin C, Nanoluc
T1 construct: Cathepsin C (Sigma C8511 from bovine spleen); purchased Sigma C8511; host or cells: bovine spleen (tissue-derived)
Procedure: Cathepsin C assay. To the solution of 50 μl of furimazine mono- or bis-Gly-Phe compound (50 μM) in 1:1 NanoGlo and nanopure water containing DTT 5 mM and 50 µL of 1 ng/mL Nanoluc buffer in 1:1 NanoGlo and nanopure water containing 5 mM DTT was added, then 10 μL of Cathepsin C (Sigma C8511 from bovine spleen) at final concentration of 0.1 U/well was added. The light output was measured over time. The background of pro-substrate was measured under same condition without adding Cathepsin C.
as §1

T1 sequence (Q3ZCJ8 231-394 limits assumed): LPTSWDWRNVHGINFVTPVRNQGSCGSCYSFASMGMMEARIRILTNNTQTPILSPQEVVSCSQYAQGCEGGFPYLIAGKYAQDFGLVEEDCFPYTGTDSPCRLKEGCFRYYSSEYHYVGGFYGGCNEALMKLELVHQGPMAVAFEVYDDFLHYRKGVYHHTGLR
T1 sequence (Q3ZCJ8 25-134 limits assumed): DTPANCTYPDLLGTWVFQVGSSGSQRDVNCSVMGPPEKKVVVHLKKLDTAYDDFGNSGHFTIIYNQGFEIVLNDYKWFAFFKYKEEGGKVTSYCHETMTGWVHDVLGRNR
T1 sequence (Q3ZCJ8 395-463 limits assumed): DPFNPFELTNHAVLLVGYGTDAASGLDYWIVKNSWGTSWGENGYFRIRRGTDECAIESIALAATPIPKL

- Background RLU ([1]; Time 0 hr): 10,028 RLU
- Signal to Background ([1]; Time 0 hr): 3,235
- Background RLU ([1]; Time 0.1 hr): 10,884 RLU
- Signal to Background ([1]; Time 0.1 hr): 2,915
- Background RLU ([1]; Time 0.25 hr): 12,298 RLU
- Signal to Background ([1]; Time 0.25 hr): 2,426
- Background RLU ([1]; Time 0.5 hr): 13,047 RLU
- Signal to Background ([1]; Time 0.5 hr): 2,193
- Background RLU ([1]; Time 1 hr): 18,529 RLU
- Signal to Background ([1]; Time 1 hr): 1,172
- Background RLU ([1]; Time 1.5 hr): 20,751 RLU
- Signal to Background ([1]; Time 1.5 hr): 926
- Background RLU ([1]; Time 2 hr): 24,489 RLU
- Signal to Background ([1]; Time 2 hr): 627
- Background RLU ([1]; Time 3 hr): 29,692 RLU
- Signal to Background ([1]; Time 3 hr): 385
- Background RLU ([1]; Time 4 hr): 33,514 RLU
- Signal to Background ([1]; Time 4 hr): 264
- Background RLU ([1]; Time 5 hr): 37,181 RLU
- Signal to Background ([1]; Time 5 hr): 210
- Background RLU ([1]; Time 6 hr): 40,543 RLU
- Signal to Background ([1]; Time 6 hr): 157
- Background RLU ([1]; Time 16 hr): 23,092 RLU
- Signal to Background ([1]; Time 16 hr): 36
Structure (SMILES): OCC1OC(Oc2ccc(COc3c(Cc4ccco4)nc4c(Cc5ccccc5)nc(-c5ccccc5)cn34)cc2)C(O)C(O)C1O [WZ-0246, β-D-glucose Benzyl Furimazine]

- background signal (in words) ([1]; FIG. 1, Tables 1 and 2): close to instrument noise
- Background RLU ([1]; Time 0 hr): 87 RLU
- Signal to Background ([1]; Time 0 hr): 340,753
- Background RLU ([1]; Time 0.1 hr): 39 RLU
- Signal to Background ([1]; Time 0.1 hr): 134,646
- Background RLU ([1]; Time 0.25 hr): 32 RLU
- Signal to Background ([1]; Time 0.25 hr): 73,734
- Background RLU ([1]; Time 0.5 hr): 21 RLU
- Signal to Background ([1]; Time 0.5 hr): 58,191
- Background RLU ([1]; Time 1 hr): 26 RLU
- Signal to Background ([1]; Time 1 hr): 21,501
- Background RLU ([1]; Time 1.5 hr): 26 RLU
- Signal to Background ([1]; Time 1.5 hr): 12,822
- Background RLU ([1]; Time 2 hr): 20 RLU
- Signal to Background ([1]; Time 2 hr): 11,569
- Background RLU ([1]; Time 3 hr): 14 RLU
- Signal to Background ([1]; Time 3 hr): 11,041
- Background RLU ([1]; Time 4 hr): 25 RLU
- Signal to Background ([1]; Time 4 hr): 5,297
- Background RLU ([1]; Time 5 hr): 26 RLU
- Signal to Background ([1]; Time 5 hr): 4,585
- Background RLU ([1]; Time 6 hr): 22 RLU
- Signal to Background ([1]; Time 6 hr): 5,060
- Background RLU ([1]; Time 16 hr): 26 RLU
- Signal to Background ([1]; Time 16 hr): 2708
- signal-to-background ratio, fold higher than the corresponding mono-protected analogue ([1]; at the initial time point): ~100 fold
- signal-to-background ratio (in words) ([1]; compared to mono-protected analogues WZ-0261 and WZ-0246): significantly higher
- background, fold lower than the corresponding mono-protected analogue WZ-0246 ([1]; vs WZ-0246): ~200 fold
Structure (SMILES): OCC1OC(Oc2ccc(COc3c(Cc4ccco4)nc4c(Cc5ccccc5)nc(-c5ccc(OC6OC(CO)C(O)C(O)C6O)cc5)cn34)cc2)C(O)C(O)C1O [WZ-0262, bis-(β-D-glucose) Benzyl Furimazine]

Further lines, the compound ahead of its results:

Structure (SMILES): O=P(O)(O)Oc1ccc(COc2c(Cc3ccco3)nc3c(Cc4ccccc4)nc(-c4ccccc4)cn23)cc1 [WZ-0263, Furimazine Benzyl Phosphate]
- Signal to Background ([2]; Time 5 min): 203
- Background RLU ([2]; Time 5 min): 32,464 RLU
- Signal to Background ([2]; Time 11 min): 232
- Background RLU ([2]; Time 11 min): 36,745 RLU
- Signal to Background ([2]; Time 21 min): 236
- Background RLU ([2]; Time 21 min): 42,522 RLU
- Signal to Background ([2]; Time 31 min): 245
- Background RLU ([2]; Time 31 min): 48,399 RLU
- Signal to Background ([2]; Time 42 min): 244
- Background RLU ([2]; Time 42 min): 54,309 RLU
- Signal to Background ([2]; Time 62 min): 230
- Background RLU ([2]; Time 62 min): 65,661 RLU
- Signal to Background ([2]; Time 93 min): 200
- Background RLU ([2]; Time 93 min): 80,929 RLU
- Signal to Background ([2]; Time 123 min): 170
- Background RLU ([2]; Time 123 min): 94,825 RLU

Structure (SMILES): O=P(O)(O)Oc1c(Cc2ccco2)nc2c(Cc3ccccc3)nc(-c3ccccc3)cn12 [WZ-0265, Furimazine Phosphate]
- Signal to Background ([2]; Time 5 min): 3
- Background RLU ([2]; Time 5 min): 9,033,396 RLU
- Signal to Background ([2]; Time 11 min): 3
- Background RLU ([2]; Time 11 min): 9,181,168 RLU
- Signal to Background ([2]; Time 21 min): 3
- Background RLU ([2]; Time 21 min): 9,310,668 RLU
- Signal to Background ([2]; Time 31 min): 3
- Background RLU ([2]; Time 31 min): 9,376,837 RLU
- Signal to Background ([2]; Time 42 min): 2
- Background RLU ([2]; Time 42 min): 9,394,555 RLU
- Signal to Background ([2]; Time 62 min): 2
- Background RLU ([2]; Time 62 min): 9,359,460 RLU
- Signal to Background ([2]; Time 93 min): 2
- Background RLU ([2]; Time 93 min): 9,089,377 RLU
- Signal to Background ([2]; Time 123 min): 2
- Background RLU ([2]; Time 123 min): 8,772,026 RLU

Structure (SMILES): O=P(O)(O)Oc1ccc(COc2c(Cc3ccco3)nc3c(Cc4ccccc4)nc(-c4cccc(OP(=O)(O)O)c4)cn23)cc1 [WZ-0291, Furimazine Bis-Phosphate]
- Signal to Background ([2]; Time 5 min): 18,907
- Background RLU ([2]; Time 5 min): 713 RLU
- Signal to Background ([2]; Time 11 min): 18,699
- Background RLU ([2]; Time 11 min): 739 RLU
- Signal to Background ([2]; Time 21 min): 19,076
- Background RLU ([2]; Time 21 min): 723 RLU
- Signal to Background ([2]; Time 31 min): 18,846
- Background RLU ([2]; Time 31 min): 723 RLU
- Signal to Background ([2]; Time 42 min): 18,568
- Background RLU ([2]; Time 42 min): 722 RLU
- Signal to Background ([2]; Time 62 min): 18,861
- Background RLU ([2]; Time 62 min): 678 RLU
- Signal to Background ([2]; Time 93 min): 17,014
- Background RLU ([2]; Time 93 min): 680 RLU
- Signal to Background ([2]; Time 123 min): 14,664
- Background RLU ([2]; Time 123 min): 704 RLU
- background (in words) ([2]; compared to mono-protected analogue WZ-0263): low
- signal-to-background ratio (in words) ([2]; compared to mono-protected analogues WZ-0263 and WZ-0265): significantly higher

Structure (SMILES): NCC(=O)NC(Cc1ccccc1)C(=O)Nc1ccc(COc2c(Cc3ccco3)nc3c(Cc4ccccc4)nc(-c4ccccc4)cn23)cc1 (stereo not drawn) [WZ-0294, Gly-Phe-Aminobenzyl Furimazine]
- Signal to Background ([3]; Time 5 min): 151
- Background RLU ([3]; Time 5 min): 8,974 RLU
- Signal to Background ([3]; Time 10 min): 163
- Background RLU ([3]; Time 10 min): 9,538 RLU
- Signal to Background ([3]; Time 20 min): 180
- Background RLU ([3]; Time 20 min): 10,825 RLU
- Signal to Background ([3]; Time 30 min): 197
- Background RLU ([3]; Time 30 min): 11,741 RLU
- Signal to Background ([3]; Time 40 min): 210
- Background RLU ([3]; Time 40 min): 12,664 RLU
- Signal to Background ([3]; Time 60 min): 232
- Background RLU ([3]; Time 60 min): 14,295 RLU
- Signal to Background ([3]; Time 90 min): 255
- Background RLU ([3]; Time 90 min): 16,141 RLU
- Signal to Background ([3]; Time 120 min): 275
- Background RLU ([3]; Time 120 min): 17,178 RLU
- Signal to Background ([3]; Time 180 min): 273
- Background RLU ([3]; Time 180 min): 20,562 RLU
- Signal to Background ([3]; Time 240 min): 259
- Background RLU ([3]; Time 240 min): 23,705 RLU
- Signal to Background ([3]; Time 938 min): 142
- Background RLU ([3]; Time 938 min): 15,995 RLU

Structure (SMILES): NCC(=O)NC(Cc1ccccc1)C(=O)Nc1ccc(COc2c(Cc3ccco3)nc3c(Cc4ccccc4)nc(-c4cccc(NC(=O)C(Cc5ccccc5)NC(=O)CN)c4)cn23)cc1 (stereo not drawn) [WZ-0299, Bis-Gly-Phe-Aminobenzyl Furimazine]
- background (in words) ([3]; FIG. 3, Tables 5 and 6): down to instrument noise
- Signal to Background ([3]; Time 5 min): 751
- Background RLU ([3]; Time 5 min): 20 RLU
- Signal to Background ([3]; Time 10 min): 1,464
- Background RLU ([3]; Time 10 min): 21 RLU
- Signal to Background ([3]; Time 20 min): 2,256
- Background RLU ([3]; Time 20 min): 18 RLU
- Signal to Background ([3]; Time 30 min): 3,036
- Background RLU ([3]; Time 30 min): 14 RLU
- Signal to Background ([3]; Time 40 min): 3,941
- Background RLU ([3]; Time 40 min): 14 RLU
- Signal to Background ([3]; Time 60 min): 8,514
- Background RLU ([3]; Time 60 min): 15 RLU
- Signal to Background ([3]; Time 90 min): 11,997
- Background RLU ([3]; Time 90 min): 16 RLU
- Signal to Background ([3]; Time 120 min): 23,011
- Background RLU ([3]; Time 120 min): 12 RLU
- Signal to Background ([3]; Time 180 min): 29,836
- Background RLU ([3]; Time 180 min): 17 RLU
- Signal to Background ([3]; Time 240 min): 46,864
- Background RLU ([3]; Time 240 min): 15 RLU
- Signal to Background ([3]; Time 938 min): 17,386
- Background RLU ([3]; Time 938 min): 12 RLU
- signal-to-background ratio (in words) ([3]; compared to mono-protected analogue WZ-0294): significantly higher

From patent US10316070B2, “Dual protected pro-coelenterazine substrates” (PROMEGA CORPORATION, priority 2016, dated 2019)
